This is an account of results in PMC3433414, “Oral Administration of the Pimelic Diphenylamide HDAC Inhibitor HDACi 4b Is Unsuitable for Chronic Inhibition of HDAC Activity in the CNS In Vivo” (PLoS ONE, 2012).

Usually half-life stands for how long it takes for the measured level to halve. Read a high half-life as slow loss. As usually defined, the Papp A→B is the apparent permeability from the apical to the basolateral side of a cell layer. High values mean ready permeation, low ones poor permeation.

Series [1] in a line: Plasma stability. It is filed as in vitro ADME, mouse. The conditions noted are these: fresh mouse plasma, 5 µM; for half-life at 5 µM: pooled mouse plasma, duplicates. As for the experimental part:
(§1) Incubations of test compound (5 µM initial concentration, n = 2) were carried out with pooled mouse plasma or BSA (45 mg/mL in 0.1 M phosphate buffered saline). The incubations were performed at 37°C. Samples (50 µL) were obtained from the incubation at 0, 10, 30, 120, 240, 360 and 1440 min, and added to 150 µL of acetonitrile containing carbamazepine as analytical internal standard to terminate the reaction. Samples were centrifuged and the supernatant fractions analysed by LC-MS/MS.
For half-life determinations, the instrument responses (peak areas) normalized for internal standard response, were referenced to the zero time-point samples (as 100%) in order to determine the percentage of compound remaining. Ln plots of the % remaining, for each compound, were used to determine the half-life for the plasma incubations. Half-life values were calculated from the relationship:-. [drawing 1] Where λ was the slope of the natural logarithmic (Ln) concentration vs time curve.
When quantification was required, calibration standards for parent compound and metabolites were prepared in control plasma and extracted and analysed as described for the study samples. Quantification of parent compound or metabolite was by extrapolation from the calibration line.

The nature of series [2]: Stability in serum albumin. It is filed as in vitro ADME. The method, then: as §1
In series [3] the test system is Class IIa/HDAC8 HDACs. As to the kind of experiment: Cellular HDAC assay, Boc_Lys_TFA substrate, Jurkat E6.1 cells. It is filed as cell-based. The conditions noted are these: up to 50 µM. The method, then:
Briefly, Jurkat E6.1 cells (obtained from the European Collection of Cell Cultures (ECACC)) were plated into 384 well plates at 75,000 cells/well in cellular assay buffer (RPMI without phenol red, 0.1% Fetal Bovine Serum, 10 mM HEPES, 1 mM Sodium Pyruvate). Compounds of interest were diluted in assay buffer (16-point concentration curve, 1% final DMSO) and were added to wells - unless stated otherwise in the results section - for a 2 h preincubation at 37°C prior to the addition of either 100 µM Boc_Lys_TFA or Boc_Lys_Ac. Cells were incubated for a further 3 h at 37°C, followed by the addition of a trypsin (1 mg/ml) and reference compound (Compound 26 or TSA) stop-step overnight to terminate the reaction and lyse the cells. Fluorescent counts were read the following morning on the Perkin Elmer EnVision. Z’ was 0.8 for both assays, with S:B of 19 for Boc_Lys_Ac assay, and 7 for Boc_Lys_TFA assay.
Each compound was tested in duplicate in concentration-response format on 3 separate days. For both biochemical and cellular assays, data is presented as % inhibition from maximal activity (maximal fluorescence response), which was defined as the fluorescence read in the presence of 1% DMSO, with 100% inhibition defined as the fluorescence read in the presence of substantial excess of the respective reference compounds (5 µM TSA, 50 µM Compound 26 depending on target). […]

Series [4] in a line: Permeability and efflux in Caco2 monolayers. It is filed as in vitro ADME. The settings on record: human. The method, then: Caco-2 cells (obtained from ECACC) were used after a 21-day cell culture period in 24-well Transwell plates (seeding density of 2×10^5 cells/well). Test compounds (10 µM) were dissolved in Hanks’ Balanced Salt Solution (HBSS) containing 25 mM HEPES (pH 7.4) and added to either the apical or basolateral chambers of a Transwell plate assembly. Duplicate wells were prepared per assay condition. Lucifer Yellow was added to the apical buffer in all wells to assess integrity of the cell layers by monitoring Lucifer Yellow permeation. As Lucifer Yellow (LY) cannot freely permeate lipophilic barriers, a high degree of LY transport indicates poor integrity of the cell layer.
After 1 hr incubation at 37°C, aliquots were taken from the acceptor chamber of each Transwell and added to acetonitrile containing analytical internal standard (carbamazepine) in a 96 well plate. Concentrations of test compound in the samples were measured by high performance liquid-chromatography/mass spectroscopy (LC-MS/MS).
Apparent permeability (Papp) values were calculated from the relationship: [drawing 4] […]
Acceptor = Chamber of Transwell in to which permeation of compound is measured: basal for A>B experiments and apical for B>A experiments.
The Efflux ratios, as an indication of active efflux from the apical cell surface, were calculated using the ratio of Papp B>A/Papp A>B.
A general note: Caco-2 monolayers are a common model of the intestinal barrier.

The test system of series [5] is R6/2^300Q mice. More on the design: method as in PMID 18829438. The conditions noted are these: cited from earlier work.
A short description of series [6]: Chemical stability in formulation or solution. The conditions noted are these: free base; LC-MS day 1 and after 7 days; with or without heating. It is filed as physicochemical. The method, then: Thomas and colleagues reported that a solution of 4b at 1 mg/mL was previously obtained using this procedure. […] We therefore prepared both TFA and hydrochloride (HCl) salts of 4b to establish whether they could offer improved solubility. Neither salt form of 4b was particularly soluble in water (<1 mg/ml). […] A study of the stability of the TFA salt also raised another more worrying issue in the use of 2-hydroxypropyl-β-cyclodextrin–complexed 4b salts for potential in vivo studies. […] The 4b. […] The lower than expected initial quantification of 4b was most likely due to the TFA salt rapidly degrading upon heating. Indeed, we always found the presence of the cyclised benzimidazole conversion product, named throughout as product C1, in the salt formulations even at t = 0 after preparation. Furthermore, the suspension was not stable upon standing in the dark with gentle shaking at room temperature, with a further 28% decrease observed in parent (4b) concentration on day 7 analysis, compared to day 1.
According to Thomas et al, verification of an acute pharmacodynamic response (the reversal of transcriptional dysregulation in the R6/2 model) was achieved by the repeated once daily injection of 150 mg/kg 4b in 50∶50 DMSO: PBS for three consecutive days. […] The lack of any pharmacodynamic response predictive of central Class I HDAC inhibition when 4b was dosed orally at 150 mg/kg twice daily for 5 days confirmed this prediction.

The subject of series [7] is diversity panel of 72 binding and 29 enzyme assays. The series can be described thus: Cerep Diversity Profile, overall. The conditions noted are these: 10 µM, duplicate. The text has this: In addition to the HDAC profiling performed, we also queried 4b for any apparent potential off-target effects, which could complicate any finding of efficacy or adverse events in vivo due to ‘polypharmacy’. This was accomplished by screening against a ‘diversity panel’ of 72 binding and 29 enzyme assays, comprised of roughly equal numbers of selective central and peripheral therapeutically relevant targets (Cerep Diversity Profile). This panel included representative targets from diverse enzyme families, G protein coupled receptors, steroid nuclear receptors, voltage- and ligand-gated ion channels. While not totally inclusive, it is a useful tool for discovery compounds to assess their viability as proof of concept molecules to specifically query a particular target. 4b was initially screened at 10 µM in duplicate. The full set of results is provided as Table S1. […] This clean in vitro profile was considered acceptable to proceed to ADME and pharmacokinetic studies.

`O=C(CCCCCc1nc2ccccc2[nH]1)Nc1ccccc1` [Compound C1, 6-(1-H-benzo[d]imidazol-2-yl)-N-phenylhexanamide] gave a half-life at 5 µM in series [1] of 3.6 h.
On to `Nc1ccccc1NC(=O)CCCCCC(=O)Nc1ccccc1` [Compound 4b], for which, in series [2], the “stability in serum albumin incubations” value was “stable”. Besides, the “cellular inhibition, Class IIa/HDAC8 substrate” value in series [3] is given as “no inhibition”. In series [4] (Caco-2, pH 7.4), this molecule showed a Papp A→B at 1 h, 10 µM of 15.6 ×10⁻⁶ cm/s. Also, in series [4] (Caco-2, pH 7.4, read-out: effective efflux ratio), the efflux ratio at 1 h, 10 µM was 3.5. Besides, the gene expression abnormalities result in series [5] (150 mg/kg subcutaneous once daily for 3 days) was “successfully ameliorated gene expression abnormalities”. The “motor performance and appearance in chronic efficacy study” value in series [5] (drinking water, estimated 150 mg/kg/day, from 4 months of age) was “improved motor performance”. Besides, the “degradation in cyclodextrin suspension” value in series [6] is recorded as “no degradation”. Further, in series [1], the “time to complete conversion to amide hydrolysis products (M1 and M2)” value is listed as no more than 6 h; the half-life at 5 µM was 1.9 h. Moreover, the “off-target profile in the Cerep Diversity Profile” value in series [7] is given as “clean”.
